Reference: patent publication US11044909B2, “Composition for destruction of microalgae or sphaerocarpus” (CUREARTH, INC., priority 2015, dated 2021)
Where two headings read alike, the source gives them in different places.

Columns and labels:
[1] = test system: Heterocapsa Circularisquama; test: Microalgae-destroying effect by IC50 measurement (cell count); assay type: cell-based; conditions: 24 h
Method: (§1) The IC50 value was obtained according to Equation 1: […]
(§2) First, the above-listed microalgae were cultured in a culture flask at a temperature of about 20° C. under light conditions, and a medium used was Guillard's f/2 medium which is commonly used in the art (Guillard R R L and Keller M D. Culturing dinoflagellates. In: Spector (Ed.), Dinoflagellates. New York: Academic Press; 1984, 391442).
(§3) After the cultured microalgae were transferred onto a 24-well plate, Chattonella Marina, Heterosigma circularisquama, Cochlodinium Polykrikoides, and Heterosigma akashiwo, which were in an exponential growth phase, were treated with Compounds 1 to 3, 5 to 10, 12, 13, 17 to 43, and 45 to 47 synthesized in Examples 1 to 3, 5 to 10, 12, 13, 17 to 43, and 45 to 47 at concentrations of 0.1 uM, 0.2 uM, 0.5 uM, 1 uM, 2 uM, and 5 uM, and then cultured for 1 day.
(§4) Control groups were not treated with any of the compounds synthesized in the above-identified examples. After incubation, the number of cells of each alga was counted using a Burker-Tukr hemocytometer, and IC50 values were calculated according to Equation 1 using SigmaPlot Version 11.2 software (Standard curve: the four-parameter logistic curve).

Heterosigma Akashiwo [2] = test: as above; assay type: cell-based; conditions: 24 h, read-out: IC50 Heterosigma Akashiwo
Method: as §1, §2, §3, §4

Chattonella Marina [3] = test: as above; assay type: cell-based; conditions: 24 h, read-out: IC50 Chattonella Marina
Method: as §1, §2, §3, §4

Microcystis aeruginosa [4] = test: Microalgae-destroying effect of Compound 2, viable cell counts; assay type: cell-based; conditions: 0.5 μM, 1 μM, and 2 μM, observed for 2 days; FIG. 3
Method: To investigate a microalgae-destroying effect of Compound 2 synthesized in Example 2, culture solutions of Microcystis aeruginosa (40 mL; initial population number: 100×10^4/mL) in DMSO and BG11 medium were each treated with solutions of Compound 2 at 0.5 μM, 1 μM, and 2 μM and observed for 2 days. A culture solution of the microalgae not treated with a solution of Compound 2 was used as a control group.

[5] = test system: Cochlodinium Polykrikoides; test: Microalgae-destroying effect by IC50 measurement (cell count); assay type: cell-based; conditions: Margalefidinium polykrikoides, 24 h, read-out: IC50 Cochlodinium Polykrikoides
Method: (§5) The IC50 value was obtained according to Equation 1:
(§6) The algicidal activity of each compound was calculated using Equation 2: Algicidal activity (%)=(1−Tt/Ct)×100 <Equation 2>
(§7) In Equation 2, T (treatment group) and C (control group) represent algae densities in cell counts when each compound was inoculated and was not inoculated, respectively, and t represents the number of days which had passed after the inoculation.
as §2, §3, §4

Microcystis aeruginosa [6] = test: as above; assay type: cell-based; conditions: Microcystis aeruginosa, 120 h, read-out: IC50 Microcystis aeruginosa
Method: as §5, §6, §7, §2
Microcystis aeruginosa was treated with Compounds 1 to 3, 5 to 10, 12, 13, 17 to 43, and 45 to 51 synthesized in Examples 1 to 3, 5 to 10, 12, 13, 17 to 43, and 45 to 51 at concentrations of 0.1 uM, 0.2 uM, 0.5 uM, 1 uM, 2 uM, 5 uM, 10 uM, 15 uM, and 20 uM and then cultured for 5 days.
as §4

Danio rerio = test: Acute toxicity test on Danio rerio; assay type: in vivo; conditions: 15 μM, 2 weeks; FIG. 5
Method: An acute toxicity test on Danio rerio (zebrafish) was performed using compounds 33 and 35 synthesized in Examples 33 and 35. In particular, 2-cm-sized Danio rerio, which had been 3 months since hatching, was acclimatized for 14 days before the start of the experiment. The Danio rerio were feed twice a day during the acclimation period. Next, solutions of Compounds 33 and […] were prepared at concentrations of 0, 5, 10, 15, 20, 25, and 30 μM. Culture solutions of the Danio rerio (10 L, initial population number: 10 zebrafish in total (1 zebrafish/L)) were treated for 2 weeks with the solutions of Compounds 33 and 35 at different concentrations to thereby perform the acute toxicity test.

Daphnia magna = test: Acute toxicity test on Daphnia magna; assay type: in vivo; conditions: 5 μM, 2 days; FIG. 4
Method: An acute toxicity test was performed on Daphnia magna (water flea) using Compounds 33 and 35 synthesized in Examples 33 and 35. In particular, culture solutions of Daphnia magna (200 mL, 30 animals) in DMSO and M4 medium were treated with solutions of Compounds 33 and 35 at 5 μM, 10 μM, and 15 μM for 2 days.

Heterosigma Akashiwo [7] = test: Microalgae-destroying effect by surviving cells rate measurement; assay type: cell-based; conditions: 1 μM, about 6 hours
Method: (§8) To investigate a microalgae-destroying effect of Compound 35 synthesized in Example 35, culture solutions of Chattonella Marina, Heterosigma Circularisquama, Cochlodinium Polykrikoides, and Heterosigma akashiwo (40 mL, initial population number: about 15×10^4 to 18×10^4/mL) were each treated with a solution of Compound 35 (1 μM in dimethyl sulfoxide (DMSO) and f/2 medium) for about 6 hours. A microalgae culture solution not treated with a solution of Compound 35 was used as a control group. After the treatment, viable cell ratios of the microalgae with respect to time were measured, and it was also observed whether the microalgae were destroyed.

[8] = test system: Cochlodinium Polykrikoides; test: as above; assay type: cell-based; conditions: 1 μM, about 6 hours
Method: as §8

[9] = test system: Heterosigma Circularisquama; test: as above; assay type: cell-based; conditions: 1 μM, about 6 hours
Method: as §8

Chattonella Marina [10] = test: as above; assay type: cell-based; conditions: 1 μM, about 6 hours
Method: as §8

[11] = Table 1, 3,4-dichlorobenzylamines, 0.1-5 uM, cultured 1 day, read-out: IC50 Heterocapsa Circularisquama
[12] = Table 1, 3,4-dichlorobenzylamines, 0.1-5 uM, cultured 1 day
[13] = Table 1, 3,4-dichlorobenzylamines, 0.1-20 uM, cultured 5 days
[14] = Table 2, 0.1-5 uM, cultured 1 day, read-out: IC50 Heterocapsa Circulariaquama
[15] = Table 2, 0.1-5 uM, cultured 1 day

Structure (SMILES) | IC50 [1, 11] [nM] | IC50 (Heterosigma Akashiwo [2]; [12]) [nM] | IC50 (Chattonella Marina [3]; [12]) [nM] | IC50 [5, 12] [nM] | IC50 (Microcystis aeruginosa [6]; [13]) [nM] | IC50 [1, 14] [nM] | IC50 (Heterosigma Akashiwo [2]; [15]) [nM] | IC50 (Chattonella Marina [3]; [15]) [nM] | IC50 [5, 15] [nM] | IC50 (Microcystis aeruginosa [6]) [nM] | other results
CCN(CC)CCCNCc1ccc(Cl)c(Cl)c1 [Compound 2, N′-(3,4-Dichloro-benzyl)-N,N-diethyl-propane-1,3-diamine] | 3400 | 1300 | 2600 | 327 | 570 |  |  |  |  |  | viable cell counts of Microcystis with respect to time (Microcystis aeruginosa [4]): high algicidal effect
Clc1ccc(CNC2CCCC2)cc1Cl [Compound 33, Cyclopentyl-(3,4-dichloro-benzyl)-amine] | 1040 | 243 | 320 | 360 | 19500 |  |  |  |  |  | survival ratio (Danio rerio): 100%; survival ratio (Daphnia magna): about 100%
Clc1ccc(CNC2CCCCC2)cc1Cl [Compound 35, Cyclohexyl-(3,4-dichloro-benzyl)-amine] | 1140 | 218 | 290 | 150 | 14600 |  |  |  |  |  | survival ratio (Danio rerio): 100%; viable cell ratio with respect to time (Heterosigma Akashiwo [7]; FIG. 1): decreased with time; whether the microalgae were destroyed (microscope images) (Heterosigma Akashiwo [7]; FIG. 2): destroyed; viable cell ratio with respect to time ([8]; FIG. 1): decreased with time; whether the microalgae were destroyed (microscope images) ([8]; FIG. 2): destroyed; viable cell ratio with respect to time ([9]; FIG. 1): decreased with time; whether the microalgae were destroyed (microscope images) ([9]; FIG. 2): destroyed; viable cell ratio with respect to time (Chattonella Marina [10]; FIG. 1): decreased with time; whether the microalgae were destroyed (microscope images) (Chattonella Marina [10]; FIG. 2): destroyed
c1ccc(CNCCc2ccccn2)cc1 [Compound 37, Benzyl-(2-pyridin-2-yl-ethyl)-amine] |  |  |  |  |  | > 5000 | 130 | 340 | > 5000 | > 5000 | 
Oc1ccccc1CNCCc1ccccn1 [Compound 38, 2-[(2-Pyridin-2-yl-ethylamino)-methyl]-phenol] |  |  |  |  |  | > 5000 | 130 | 910 | > 5000 | > 5000 | 
Brc1ccccc1CNCCc1ccccn1 [Compound 39, (2-Bromo-benzyl)-(2-pyridin-2-yl-ethyl)-amine] |  |  |  |  |  |  |  |  |  | > 5000 | IC50 ([1]; read-out: IC50 Heterocapsa Circulariaquama): > 5000 nM; IC50 (Heterosigma Akashiwo [2]): 280 nM; IC50 (Chattonella Marina [3]): 1120 nM; IC50 [5]: > 5000 nM
Brc1cccc(CNCCc2ccccn2)c1 [Compound 40, (3-Bromo-benzyl)-(2-pyridin-2-yl-ethyl)-amine] |  |  |  |  |  | > 5000 | 570 | 740 | 3500 | > 5000 | 
Brc1ccc(CNCCc2ccccn2)cc1 [Compound 41, (4-Bromo-benzyl)-(2-pyridin-2-yl-ethyl)-amine] |  |  |  |  |  | > 5000 | 140 | 720 | > 5000 | > 5000 | 
c1ccc(CNC2CCCCCC2)cc1 [Compound 42, Benzyl-cycloheptyl-amine] |  |  |  |  |  | > 5000 | 150 | 520 | > 5000 | > 5000 | 
c1ccc(CNC2CCCCC2)cc1 [Compound 43, Benzyl-cyclohexyl-amine] |  |  |  |  |  | > 5000 | 670 | > 5000 | > 5000 | > 5000 | 
Clc1ccc(CNC2CCc3ccccc32)cc1Cl (centres unmarked) [Compound 45, (3,4-Dichloro-benzyl)-indan-1-yl-amine] | 2000 | 1140 | 1440 | 310 | > 20000 |  |  |  |  |  | 
Clc1ccc(CNC2CCC2)cc1Cl [Compound 46, Cyclobutyl-(3,4-dichloro-benzyl)-amine] | 3080 | 482 | 1130 | 1670 | 15800 |  |  |  |  |  | 
Clc1ccc(CNC2CCCCCCC2)cc1Cl [Compound 47, Cyclooctyl-(3,4-dichloro-benzyl)-amine] | 1190 | 340 | 500 | 100 | 15000 |  |  |  |  |  | 
